# Test results taken from US10590140B2, “Tetrahydropyrimidodiazepine and dihydropyridodiazepine compounds for treating pain and pain related conditions” (ESTEVE PHARMACEUTICALS, S.A., priority 2016, dated 2020).
# Biological target: human α2δ-1 subunit of Cav2.2 calcium channel (Homo sapiens (Human), UniProt P54289)
# Experiment: Binding assay to human α2δ-1 subunit of Cav2.2 calcium channel ([3H]-Gabapentin)
# Conditions: binding to α2δ-1, [3H]-Gabapentin; read-out: Ki (nM) α2δ-1
# How it was run: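 Radioactivity on dried GF/C filters quantified by scintillation after filtration and three cold Tris-HCl (pH 7.4) washes. Incubation ran 60 min at 27° C with [3H]-gabapentin; 10 μM pregabalin gave nonspecific binding.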
# human α2δ-1 subunit of Cav2.2 calcium channel, sequence (P54289 25-1103): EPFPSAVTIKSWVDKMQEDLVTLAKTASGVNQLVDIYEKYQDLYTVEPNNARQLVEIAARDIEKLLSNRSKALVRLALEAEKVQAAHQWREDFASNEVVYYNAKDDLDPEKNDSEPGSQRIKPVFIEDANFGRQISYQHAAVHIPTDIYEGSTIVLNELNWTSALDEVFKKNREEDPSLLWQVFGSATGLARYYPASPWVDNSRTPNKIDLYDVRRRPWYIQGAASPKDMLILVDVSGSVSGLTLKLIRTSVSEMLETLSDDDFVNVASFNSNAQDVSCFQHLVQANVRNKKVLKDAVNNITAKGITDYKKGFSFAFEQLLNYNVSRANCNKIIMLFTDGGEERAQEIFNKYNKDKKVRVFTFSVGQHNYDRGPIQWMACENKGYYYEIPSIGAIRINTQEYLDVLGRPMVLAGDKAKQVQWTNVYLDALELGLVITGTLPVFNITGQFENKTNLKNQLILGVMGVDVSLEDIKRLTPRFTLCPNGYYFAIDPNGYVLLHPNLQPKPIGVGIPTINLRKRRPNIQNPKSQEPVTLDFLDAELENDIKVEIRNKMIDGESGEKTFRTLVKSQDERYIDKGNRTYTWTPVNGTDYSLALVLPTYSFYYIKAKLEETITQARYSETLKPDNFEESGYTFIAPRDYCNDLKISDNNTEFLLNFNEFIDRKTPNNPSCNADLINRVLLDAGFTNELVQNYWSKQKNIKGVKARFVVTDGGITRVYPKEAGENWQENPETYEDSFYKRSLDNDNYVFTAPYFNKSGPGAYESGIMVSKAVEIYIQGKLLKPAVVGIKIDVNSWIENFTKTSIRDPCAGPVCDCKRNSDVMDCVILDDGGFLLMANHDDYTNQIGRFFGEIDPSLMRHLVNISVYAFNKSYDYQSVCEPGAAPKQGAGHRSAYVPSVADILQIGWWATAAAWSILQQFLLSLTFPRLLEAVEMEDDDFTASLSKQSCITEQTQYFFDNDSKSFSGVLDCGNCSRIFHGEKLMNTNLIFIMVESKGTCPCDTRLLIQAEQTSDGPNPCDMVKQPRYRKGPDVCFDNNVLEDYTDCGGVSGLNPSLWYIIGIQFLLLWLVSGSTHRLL
row,SMILES,Ki [nM]
1,"CCNc1ncc2c(n1)N(C)CCN(c1ccccc1OC(CNC)c1ccccc1)C2=O (centres unmarked) [Example 338, 2-(ethylamino)-9-methyl-6-(2-(2-(methylamino)-1-phenylethoxy)phenyl)-6,7,8,9-tetrahydro-5H-pyrimido[4,5-e][1,4]diazepin-5-one]",> 3000
2,"CCNc1ncc2c(n1)N(C)CCN(c1cccc(CCN3CCC4(CC3)CN(C(C)C)C(=O)[C@@H](C)O4)c1)C2=O [Example 276, (R)-9-(3-(2-(ethylamino)-9-methyl-5-oxo-5,7,8,9-tetrahydro-6H-pyrimido[4,5-e][1,4]diazepin-6-yl)phenethyl)-4-isopropyl-2-methyl-1-oxa-4,9-diazaspiro[5.5]undecan-3-one]",100 to 500
3,"CSc1ncc2c(n1)N(C)CCN(c1cccc(COCC(c3ccccc3)N(C)C(=O)OC(C)(C)C)c1)C2=O (centres unmarked) [Example 18, tert-butyl methyl(2-((3-(9-methyl-2-(methylthio)-5-oxo-5,7,8,9-tetrahydro-6H-pyrimido[4,5-e][1,4]diazepin-6-yl)benzyl)oxy)-1-phenylethyl) carbamate]",> 3000
4,"CCNc1ncc2c(n1)N(C)CCN(c1cccc(COC(CN(C)C(=O)OCC[Si](C)(C)C)c3ccccc3)c1)C2=O (centres unmarked) [Example 87, 2-(trimethylsilyl)ethyl (2-((3-(2-(ethylamino)-9-methyl-5-oxo-5,7,8,9-tetrahydro-6H-pyrimido[4,5-e][1,4]diazepin-6-yl)benzyl)oxy)-2-phenylethyl)(methyl) carbamate]",> 3000
5,"COc1ncc2c(n1)N(C)CCN(c1cccc(COC(CCN(C)C(=O)OC(C)(C)C)c3cccs3)c1)C2=O (centres unmarked) [Example 139, tert-butyl (3-((3-(2-methoxy-9-methyl-5-oxo-5,7,8,9-tetrahydro-6H-pyrimido[4,5-e][1,4]diazepin-6-yl)benzyl)oxy)-3-(thiophen-2-yl)propyl)(methyl)carbamate]",> 3000
6,"CCNc1ncc2c(n1)N(C)CCN(c1cccc(-c3nnc(CN4CCC(c5ccccc5)(N(C)C)CC4)o3)c1)C2=O [Example 441, 6-(3-(5-((4-(dimethylamino)-4-phenylpiperidin-1-yl)methyl)-1,3,4-oxadiazol-2-yl)phenyl)-2-(ethylamino)-9-methyl-6,7,8,9-tetrahydro-5H-pyrimido[4,5-e][1,4]diazepin-5-one]",100 to 500
7,"Cc1cc2c(cn1)C(=O)N(c1cccc(COC(CCN(C)C(=O)OC(C)(C)C)c3ccccc3)c1)CCN2C (centres unmarked) [Example 303, tert-butyl (3-((3-(1,8-dimethyl-5-oxo-1,2,3,5-tetrahydro-4H-pyrido[4,3-e][1,4]diazepin-4-yl)benzyl)oxy)-3-phenylpropyl)(methyl) carbamate]",> 3000

# Next, values leading:
row,Ki [nM],SMILES
1,> 3000,"CSc1ncc2c(n1)N(C)CCN(c1cccc(-n3cnc(CN(C)C(=O)OC(C)(C)C)c3)c1)C2=O [Example 46, tert-butyl methyl((1-(3-(9-methyl-2-(methylthio)-5-oxo-5,7,8,9-tetrahydro-6H-pyrimido[4,5-e][1,4]diazepin-6-yl)phenyl)-1H-imidazol-4-yl)methyl) carbamate]"
2,> 3000,"CCNc1ncc2c(n1)N(C)CCN(c1cccc(OC3CCN(C(=O)OC(C)(C)C)C3)c1)C2=O (centres unmarked) [Example 95, tert-butyl 3-(3-(2-(ethylamino)-9-methyl-5-oxo-5,7,8,9-tetrahydro-6H-pyrimido[4,5-e][1,4]diazepin-6-yl)phenoxy)pyrrolidine-1-carboxylate]"
3,> 3000,"CCNc1ncc2c(n1)N(C)CCN(c1cccc(OC(CCN(C)C(=O)OC(C)(C)C)c3cccnc3)c1)C2=O (centres unmarked) [Example 129, tert-butyl (3-(3-(2-(ethylamino)-9-methyl-5-oxo-5,7,8,9-tetrahydro-6H-pyrimido[4,5-e][1,4]diazepin-6-yl)phenoxy)-3-(pyridin-3-yl)propyl)(methyl) carbamate]"
4,> 3000,"CCNc1ncc2c(n1)N(C)CCN(c1cccc(CO[C@H](CCN(C)C(=O)OC(C)(C)C)c3ccccc3)c1)C2=O [Example 78, tert-butyl (R)-(3-((3-(2-(ethylamino)-9-methyl-5-oxo-5,7,8,9-tetrahydro-6H-pyrimido[4,5-e][1,4]diazepin-6-yl)benzyl)oxy)-3-phenylpropyl)(methyl) carbamate]"
